Data as given in publication PMC5618621, “Non-Clinical Studies for Evaluation of 8-C-Rhamnosyl Apigenin Purified from Peperomia obtusifolia against Acute Edema” (International Journal of Molecular Sciences, 2017).

Molecular target: T1, cytosolic phospholipase A2 (cPLA2) (Homo sapiens, UniProt P47712)
T1 construct: gene PLA2G4A
T1 sequence (P47712 1-749): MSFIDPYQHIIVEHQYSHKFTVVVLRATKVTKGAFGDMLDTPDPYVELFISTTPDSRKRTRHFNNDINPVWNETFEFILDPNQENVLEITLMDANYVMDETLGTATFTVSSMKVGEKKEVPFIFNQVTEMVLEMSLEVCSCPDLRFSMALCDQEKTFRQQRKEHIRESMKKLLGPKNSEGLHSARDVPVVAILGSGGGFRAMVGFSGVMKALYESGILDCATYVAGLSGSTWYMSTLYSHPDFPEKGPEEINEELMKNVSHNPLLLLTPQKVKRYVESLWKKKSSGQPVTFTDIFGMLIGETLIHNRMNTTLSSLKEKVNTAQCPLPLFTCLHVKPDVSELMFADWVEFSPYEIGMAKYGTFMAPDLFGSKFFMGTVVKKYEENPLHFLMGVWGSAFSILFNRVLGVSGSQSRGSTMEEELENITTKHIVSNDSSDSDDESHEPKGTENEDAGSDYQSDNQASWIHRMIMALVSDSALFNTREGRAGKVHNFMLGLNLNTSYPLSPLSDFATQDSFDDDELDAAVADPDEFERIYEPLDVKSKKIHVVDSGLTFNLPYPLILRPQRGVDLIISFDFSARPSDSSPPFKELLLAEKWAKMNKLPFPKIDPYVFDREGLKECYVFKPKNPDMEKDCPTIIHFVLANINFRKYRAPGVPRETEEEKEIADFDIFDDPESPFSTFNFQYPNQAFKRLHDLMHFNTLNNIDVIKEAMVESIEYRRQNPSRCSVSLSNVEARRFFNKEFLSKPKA
Test: recombinant cPLA2 enzymatic assay (Cayman cPLA2 assay kit)
Assay type: biochemical

- IC50: 134 µM
Structure (SMILES): C[C@@H]1OC(c2c(O)cc(O)c3c(=O)cc(-c4ccc(O)cc4)oc23)[C@H](O)[C@H](O)[C@H]1O (stereo partly shown) [8CR, 8-C-rhamnosyl apigenin]
